pIC50: −log10 of the molar value.
Legend:
Fms = target: T1, Fms (Homo sapiens, UniProt P07333); assay: Fms biochemical assay (AlphaScreen or 33P-ATP); details: under the test conditions employed; read-out: IC50 toward kinase Fms
T1 construct: purchased Upstate Biotech 14-551
Description: Each sample was at 5% DMSO.

B-Raf = B-Raf (Homo sapiens, UniProt P15056); assay: B-Raf kinase activity assay; type: biochemical; details: under the test conditions employed; read-out: IC50 toward kinase B-Raf
B-Raf V600E = B-Raf V600E (Homo sapiens, UniProt P15056, V600E); assay: B-Raf V600E kinase activity assay; type: biochemical; details: under the test conditions employed; read-out: IC50 toward kinase B-Raf V600E
Chain of B-Raf V600E (P15056 whole entry V600E): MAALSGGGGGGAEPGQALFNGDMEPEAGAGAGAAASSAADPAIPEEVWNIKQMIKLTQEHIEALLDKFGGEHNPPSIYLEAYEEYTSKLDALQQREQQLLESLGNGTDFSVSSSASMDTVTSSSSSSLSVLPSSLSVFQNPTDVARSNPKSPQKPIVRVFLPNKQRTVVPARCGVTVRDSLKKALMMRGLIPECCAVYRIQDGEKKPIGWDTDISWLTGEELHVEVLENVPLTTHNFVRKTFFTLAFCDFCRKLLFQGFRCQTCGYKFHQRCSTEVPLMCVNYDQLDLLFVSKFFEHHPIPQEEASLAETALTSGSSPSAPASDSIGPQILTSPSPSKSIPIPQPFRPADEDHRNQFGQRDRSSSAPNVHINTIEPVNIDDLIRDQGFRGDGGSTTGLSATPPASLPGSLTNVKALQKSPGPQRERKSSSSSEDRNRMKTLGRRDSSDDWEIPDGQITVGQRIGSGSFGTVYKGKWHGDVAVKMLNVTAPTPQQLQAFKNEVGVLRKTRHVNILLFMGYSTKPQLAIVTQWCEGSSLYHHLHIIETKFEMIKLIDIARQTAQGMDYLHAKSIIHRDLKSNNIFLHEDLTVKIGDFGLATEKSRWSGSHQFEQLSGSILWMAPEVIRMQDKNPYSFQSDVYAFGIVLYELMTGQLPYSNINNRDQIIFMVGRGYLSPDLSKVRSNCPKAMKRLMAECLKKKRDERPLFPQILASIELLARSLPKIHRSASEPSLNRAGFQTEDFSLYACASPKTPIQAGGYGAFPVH

Flt1 = Flt1 (Homo sapiens, UniProt P17948); assay: Flt1 kinase activity assay; type: biochemical; details: under the test conditions employed; read-out: IC50 toward kinase Flt1
Kit = target: T2, Kit (Homo sapiens, UniProt P10721); assay: c-kit biochemical assay (AlphaScreen or 33P-ATP); details: under the test conditions employed; read-out: IC50 toward kinase Kit
T2 construct: P1332.N6 BI PTP KIT M552-K948-X COD; made in house; host or cells: E. coli BL21(DE3)RIL, co-expressed with PTP1B
T2 sequence (P10721 552-948): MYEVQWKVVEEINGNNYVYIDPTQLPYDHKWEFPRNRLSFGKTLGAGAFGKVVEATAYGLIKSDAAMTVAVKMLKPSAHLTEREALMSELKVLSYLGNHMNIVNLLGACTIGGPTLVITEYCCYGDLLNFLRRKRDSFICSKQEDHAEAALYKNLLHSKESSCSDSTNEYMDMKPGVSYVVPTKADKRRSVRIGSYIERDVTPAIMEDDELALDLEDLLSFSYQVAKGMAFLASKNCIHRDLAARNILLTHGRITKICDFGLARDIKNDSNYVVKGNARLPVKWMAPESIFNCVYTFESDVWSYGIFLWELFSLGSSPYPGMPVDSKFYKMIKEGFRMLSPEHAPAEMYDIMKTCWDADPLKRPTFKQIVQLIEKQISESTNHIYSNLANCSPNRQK
Experimental: C-kit kinase was at 1 ng per sample.
The c-kit enzyme used in the above assay was either obtained from Cell Signaling Technology (Cat. #7754) or was prepared as follows: A plasmid encoding kit (DNA and encoded protein sequences shown below) was engineered using common polymerase chain reaction (PCR) methods. Complementary DNA cloned from various human tissues were purchased from Invitrogen, and these were used as substrates in the PCR reactions. Specific custom synthetic oligonucleotide primers were designed to initiate the PCR product, and also to provide the appropriate restriction enzyme cleavage sites for ligation with the plasmids. The entire sequence encoding the enzyme was made through a gene synthesis procedure, using custom synthetic oligonucleotides covering the entire coding sequence (Invitrogen, see below).

HGK = HGK (Homo sapiens, UniProt O95819); assay: HGK (MAP4K4) biochemical assay (AlphaScreen); details: under the test conditions employed; read-out: IC50 toward kinase HGK
Experimental: Substrate was 10 nM biotin-ERM (T567/T564/T558, Cell Signaling, Inc., cat#1344). MAP4K4 kinase was at 0.5 ng per sample. After incubation of the kinase reaction for 40 min at room temperature, 5 μl of donor beads and protein A acceptor beads (Perkin Elmer Life Science, cat#67606017) at final concentration 1 μg/ml in stop buffer (20 mM Tris, pH 7.4, 200 mM Nacl, 100 mM EDTA, 0.03% BSA) was added, along with Phospho-ERM Antibody (T567/T564/T558, Cell Signaling, Inc., cat#3141) at 1:1000 dilution. […] Phosphorylated substrate results in binding of the antibody which binds to protein A acceptor bead and association of the donor and acceptor beads is such that the signal correlates with kinase activity.

Kdr = Kdr (Homo sapiens, UniProt P35968); assay: Kdr kinase activity assay; type: biochemical; details: under the test conditions employed; read-out: IC50 toward kinase Kdr
Chain of Kdr (P35968 20-1356): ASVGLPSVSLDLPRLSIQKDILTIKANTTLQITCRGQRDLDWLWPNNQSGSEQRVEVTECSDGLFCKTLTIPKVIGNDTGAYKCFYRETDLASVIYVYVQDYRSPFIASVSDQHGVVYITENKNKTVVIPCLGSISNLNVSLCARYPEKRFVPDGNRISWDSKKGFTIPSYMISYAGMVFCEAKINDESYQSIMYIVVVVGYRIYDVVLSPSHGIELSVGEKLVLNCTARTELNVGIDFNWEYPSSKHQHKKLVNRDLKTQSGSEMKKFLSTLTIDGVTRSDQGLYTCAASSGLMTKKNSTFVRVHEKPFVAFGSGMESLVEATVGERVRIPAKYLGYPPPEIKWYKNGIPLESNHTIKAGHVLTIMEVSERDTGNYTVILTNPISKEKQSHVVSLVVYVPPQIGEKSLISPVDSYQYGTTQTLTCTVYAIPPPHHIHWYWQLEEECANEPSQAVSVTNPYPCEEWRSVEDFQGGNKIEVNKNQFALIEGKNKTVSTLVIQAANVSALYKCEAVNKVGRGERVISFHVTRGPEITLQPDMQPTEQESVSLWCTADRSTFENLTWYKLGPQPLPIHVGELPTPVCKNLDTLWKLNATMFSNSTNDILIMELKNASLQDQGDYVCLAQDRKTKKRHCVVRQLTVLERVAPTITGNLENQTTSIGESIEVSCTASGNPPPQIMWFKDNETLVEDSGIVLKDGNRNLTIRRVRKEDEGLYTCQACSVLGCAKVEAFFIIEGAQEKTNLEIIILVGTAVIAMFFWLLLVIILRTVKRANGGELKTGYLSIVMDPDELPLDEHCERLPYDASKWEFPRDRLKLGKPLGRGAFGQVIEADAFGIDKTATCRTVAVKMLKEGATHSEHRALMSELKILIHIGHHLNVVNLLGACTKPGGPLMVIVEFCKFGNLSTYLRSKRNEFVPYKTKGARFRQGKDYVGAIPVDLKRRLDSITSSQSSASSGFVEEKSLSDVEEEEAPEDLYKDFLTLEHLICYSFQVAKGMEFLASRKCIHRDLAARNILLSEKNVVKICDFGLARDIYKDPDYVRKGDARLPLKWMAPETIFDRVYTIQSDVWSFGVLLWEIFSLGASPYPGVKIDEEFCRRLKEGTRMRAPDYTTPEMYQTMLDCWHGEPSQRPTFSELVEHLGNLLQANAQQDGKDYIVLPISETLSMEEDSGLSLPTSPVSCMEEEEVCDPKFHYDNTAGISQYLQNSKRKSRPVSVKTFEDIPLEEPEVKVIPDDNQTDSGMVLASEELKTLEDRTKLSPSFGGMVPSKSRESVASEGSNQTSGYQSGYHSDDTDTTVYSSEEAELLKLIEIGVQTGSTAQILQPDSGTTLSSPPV

TrkA = target: T3, TrkA (Homo sapiens, UniProt P04629); assay: TrkA biochemical assay (AlphaScreen); details: under the test conditions employed; read-out: IC50 toward kinase TrkA
T3 construct: purchased Upstate Biotech 14-571
T3 sequence (P04629 33-796): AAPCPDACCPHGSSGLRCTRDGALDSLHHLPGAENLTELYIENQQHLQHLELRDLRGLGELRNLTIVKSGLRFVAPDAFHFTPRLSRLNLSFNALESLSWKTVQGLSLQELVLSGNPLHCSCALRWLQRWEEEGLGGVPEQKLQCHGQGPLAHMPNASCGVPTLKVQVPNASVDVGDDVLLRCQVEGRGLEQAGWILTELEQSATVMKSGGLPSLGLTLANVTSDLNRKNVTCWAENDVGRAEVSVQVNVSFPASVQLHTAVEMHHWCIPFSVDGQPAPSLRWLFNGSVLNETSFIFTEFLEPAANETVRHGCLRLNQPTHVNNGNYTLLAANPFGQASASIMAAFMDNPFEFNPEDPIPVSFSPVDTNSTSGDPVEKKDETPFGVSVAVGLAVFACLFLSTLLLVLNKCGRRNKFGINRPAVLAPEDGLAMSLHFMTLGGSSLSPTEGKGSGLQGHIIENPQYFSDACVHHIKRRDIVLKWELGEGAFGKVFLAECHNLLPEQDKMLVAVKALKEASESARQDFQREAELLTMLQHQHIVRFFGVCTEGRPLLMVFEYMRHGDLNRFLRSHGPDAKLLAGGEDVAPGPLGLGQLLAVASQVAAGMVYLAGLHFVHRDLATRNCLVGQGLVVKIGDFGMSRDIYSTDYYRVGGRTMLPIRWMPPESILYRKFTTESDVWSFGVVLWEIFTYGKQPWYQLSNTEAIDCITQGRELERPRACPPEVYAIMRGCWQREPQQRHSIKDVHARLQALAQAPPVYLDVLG
Experimental: Compounds tested were dissolved in DMSO (1 μL) and added to a white 384-well plate (Costar #3705). […] Each sample was at 5% DMSO. The plate was then incubated for 40 minutes at room temperature.

T1 sequence (P07333 20-972): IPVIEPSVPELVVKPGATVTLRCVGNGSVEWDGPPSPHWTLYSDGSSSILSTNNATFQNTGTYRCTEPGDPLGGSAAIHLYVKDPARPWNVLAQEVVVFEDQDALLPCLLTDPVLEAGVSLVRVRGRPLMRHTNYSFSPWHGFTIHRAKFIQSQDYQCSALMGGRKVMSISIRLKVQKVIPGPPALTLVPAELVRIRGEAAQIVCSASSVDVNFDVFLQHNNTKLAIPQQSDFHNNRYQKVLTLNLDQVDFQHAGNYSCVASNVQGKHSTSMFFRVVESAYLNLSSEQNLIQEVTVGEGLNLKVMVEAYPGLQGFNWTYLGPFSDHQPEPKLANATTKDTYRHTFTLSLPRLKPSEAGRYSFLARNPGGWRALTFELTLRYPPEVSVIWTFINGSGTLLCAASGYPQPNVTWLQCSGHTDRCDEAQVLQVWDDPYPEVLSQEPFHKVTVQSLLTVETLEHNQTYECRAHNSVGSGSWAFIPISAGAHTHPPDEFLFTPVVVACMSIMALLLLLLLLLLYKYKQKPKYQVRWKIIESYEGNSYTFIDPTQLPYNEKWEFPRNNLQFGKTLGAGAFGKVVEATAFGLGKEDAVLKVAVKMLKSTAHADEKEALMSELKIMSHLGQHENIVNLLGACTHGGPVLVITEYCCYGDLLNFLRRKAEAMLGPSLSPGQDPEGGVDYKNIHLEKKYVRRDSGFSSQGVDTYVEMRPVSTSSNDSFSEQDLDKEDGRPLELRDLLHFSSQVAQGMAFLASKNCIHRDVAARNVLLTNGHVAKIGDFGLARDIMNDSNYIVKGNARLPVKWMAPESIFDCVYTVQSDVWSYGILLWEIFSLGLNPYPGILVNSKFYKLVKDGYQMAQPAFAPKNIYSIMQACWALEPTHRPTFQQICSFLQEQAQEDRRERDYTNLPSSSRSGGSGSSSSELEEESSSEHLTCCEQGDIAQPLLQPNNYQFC
Chain of B-Raf (P15056 whole entry): as the sequence (P15056 whole entry V600E) above, with E600V counted along it

Row | pIC50 (Fms) | pIC50 (B-Raf) | pIC50 (B-Raf V600E) | pIC50 (Flt1) | pIC50 (Kit) | pIC50 (HGK) | pIC50 (Kdr) | pIC50 (TrkA) | SMILES
1 | ≥ 5.00 | ≥ 5.00 | ≥ 5.00 |  |  |  |  |  | Clc1ccc(COc2ccc(Cl)c(Cc3c[nH]c4ncccc34)c2Cl)cc1 [P-1768, 3-[2,6-Dichloro-3-(4-chloro-benzyloxy)-benzyl]-1H-pyrrolo[2,3-h]pyridine]
2 | ≥ 5.00 |  |  | ≥ 5.00 | ≥ 5.00 | ≥ 5.00 | ≥ 5.00 |  | COc1cnc2[nH]cc(C(=O)c3c(F)ccc(OCC(F)(F)F)c3Cl)c2c1 [P-2149, [2-Chloro-6-fluoro-3-(2,2,2-trifluoro-ethoxy)-phenyl]-(5-methoxy-1H-pyrrolo[2,3-b]pyridin-3-yl)-methanone]
3 | ≥ 5.00 | ≥ 5.00 | ≥ 5.00 |  |  |  |  |  | O=C(c1c(F)ccc(OCc2ccccc2)c1F)c1c[nH]c2ncccc12 [P-1802, (3-Benzyloxy-2,6-difluoro-phenyl)-(1H-pyrrolo[2,3-b]pyridin-3-yl)-methanone]
4 | ≥ 5.00 | ≥ 5.00 |  | ≥ 5.00 |  | ≥ 5.00 |  | ≥ 5.00 | CS(=O)(=O)c1cnc2[nH]cc(Cc3cc(F)c(OCc4nc5ccccc5[nH]4)cc3F)c2c1 [P-2170, 2-[2,5-Difluoro-4-(5-methanesulfonyl-1H-pyrrolo[2,3-b]pyridin-3-ylmethyl)-phenoxymethyl]-1H-benzoimidazole]
5 | ≥ 5.00 |  | ≥ 5.00 | ≥ 5.00 | ≥ 5.00 |  |  |  | Clc1ccc(COc2ccc(Cc3c[nH]c4ncccc34)cc2)cc1 [P-1462, 3-[4-(4-Chloro-benzyloxy)-benzyl]-1H-pyrrolo[2,3-b]pyridine]
6 | ≥ 5.00 | ≥ 5.00 |  |  | ≥ 5.00 | ≥ 5.00 |  | ≥ 5.00 | COc1cc(Cc2c[nH]c3ncc(Cl)cc23)c(F)cc1OCc1nc2cc(S(=O)(=O)N(C)C)ccc2[nH]1 [P-2173, 2-[4-(5-Chloro-1H-pyrrolo[2,3-b]pyridin-3-ylmethyl)-5-fluoro-2-methoxy-phenoxymethyl]-1H-benzoimidazole-5-sulfonic acid dimethylamide]
7 | ≥ 5.00 | ≥ 5.00 |  |  |  |  |  |  | COc1cc(Cc2c[nH]c3ncccc23)cc(Cl)c1OCc1ccc(Cl)cc1 [P-1616, 3-[3-Chloro-4-(4-chloro-benzyloxy)-5-methoxy-benzyl]-1H-pyrrolo[2,3-b]pyridine]
8 | ≥ 5.00 | ≥ 5.00 | ≥ 5.00 |  | ≥ 5.00 | ≥ 5.00 | ≥ 5.00 | ≥ 5.00 | Fc1cc(OCc2nc3ccccc3[nH]2)c(F)cc1Cc1c[nH]c2ncc(Cl)cc12 [P-2100, 2-[4-(5-Chloro-1H-pyrrolo[2,3-b]pyridin-3-ylmethyl)-2,5-difluoro-phenoxymethyl]-1H-benzoimidazole]
9 | ≥ 5.00 |  |  |  | ≥ 5.00 | ≥ 5.00 | ≥ 5.00 | ≥ 5.00 | COc1cnc2[nH]cc(Cc3cc(F)c(OCc4nc5ccccc5[nH]4)cc3Cl)c2c1 [P-2114, 2-[5-Chloro-2-fluoro-4-(5-methoxy-1H-pyrrolo[2,3-b]pyridin-3-ylmethyl)-phenoxymethyl]-1H-benzoimidazole]
10 | ≥ 5.00 | ≥ 5.00 | ≥ 5.00 |  |  | ≥ 5.00 |  | ≥ 5.00 | COc1cc(Cc2c[nH]c3ncc(S(C)(=O)=O)cc23)c(F)cc1OCc1nc2ccccc2[nH]1 [P-2186, 2-[5-Fluoro-4-(5-methanesulfonyl-1H-pyrrolo[2,3-b]pyridin-3-ylmethyl)-2-methoxy-phenoxymethyl]-1H-benzoimidazole]
11 | ≥ 5.00 | ≥ 5.00 | ≥ 5.00 |  |  |  |  |  | O=C(c1c(Cl)ccc(OCc2ccc(Cl)cc2)c1Cl)c1c[nH]c2ncccc12 [P-1769, [2,6-Dichloro-3-(4-chloro-benzyloxy)-phenyl]-(1-pyrrolo[2,3-b]pyridin-3-yl)methanone]
12 | ≥ 5.00 |  |  |  | ≥ 5.00 | ≥ 5.00 | ≥ 5.00 |  | Fc1cc(OCc2nc3ccccc3[nH]2)cc(F)c1Cc1c[nH]c2ncc(Cl)cc12 [P-2105, 2-[4-(5-Chloro-1H-pyrrolo[2,3-b]pyridin-3-ylmethyl)-3,5-difluoro-phenoxymethyl]-1H-benzoimidazole]
13 | ≥ 5.00 |  |  |  | ≥ 5.00 |  | ≥ 5.00 |  | COCCOc1ccc(F)c(Cc2c[nH]c3ncccc23)c1Cl [P-2158, 3-[2-Chloro-6-fluoro-3-(2-methoxy-ethoxy)-benzyl]-1H-pyrrolo[2,3-b]pyridine]
14 | ≥ 5.00 | ≥ 5.00 | ≥ 5.00 | ≥ 5.00 |  |  |  |  | COc1cc(Cc2c[nH]c3ncccc23)ccc1OCc1ccccc1 [P-1613, 3-(4-benzyloxy-3-methoxy-benzyl)-1H-pyrrolo[2,3-b]pyridine]
15 | ≥ 5.00 | ≥ 5.00 | ≥ 5.00 |  | ≥ 5.00 |  |  |  | COc1cc(Cc2c[nH]c3ncccc23)ccc1OCc1ccc(Cl)cc1Cl [P-1568, 3-[4-(2,4-Dichloro-benzyloxy)-3-methoxy-benzyl]-1H-pyrrolo[2,3-b]pyridine]
16 |  |  | ≥ 5.00 | ≥ 5.00 | ≥ 5.00 |  |  |  | COc1cnc2[nH]cc(Cc3ccc(OCc4ccc(Cl)cc4)c(OC)c3)c2c1 [P-1531, 3-[4-(4-Chloro-benzyloxy)-3-methoxy-benzyl]-5-methoxy-1H-pyrrolo[2,3-b]pyridine]
17 | ≥ 5.00 |  |  | ≥ 5.00 | ≥ 5.00 | ≥ 5.00 | ≥ 5.00 | ≥ 5.00 | COc1cnc2[nH]cc(Cc3cc(F)c(OCc4nc5ccccc5[nH]4)cc3F)c2c1 [P-2101, 2-[2,5-Difluoro-4-(5-methoxy-1H-pyrrolo[2,3-b]pyridin-3-ylmethyl)-phenoxymethyl]-1H-benzoimidazole]
18 | ≥ 5.00 | ≥ 5.00 | ≥ 5.00 |  |  |  |  |  | COc1cc(Cc2c[nH]c3ncccc23)ccc1OCc1ccc(C(F)(F)F)cc1 [P-1721, 3-[3-Methoxy-4-(4-trifluoromethyl-benzyloxy)-benzyl]-1H-pyrrolo[2,3-b]pyridine]
19 | ≥ 5.00 |  |  |  | ≥ 5.00 |  | ≥ 5.00 |  | COc1cc(Cc2c[nH]c3ncc(Cl)cc23)c(Cl)cc1OCc1ccc(Cl)cc1F [P-2167, 5-Chloro-3-[2-chloro-4-(4-chloro-2-fluoro-benzyloxy)-5-methoxy-benzyl]-1H-pyrrolo[2,3-b]pyridine]
20 | ≥ 5.00 |  |  | ≥ 5.00 | ≥ 5.00 | ≥ 5.00 | ≥ 5.00 | ≥ 5.00 | Cn1cc(-c2cnc3[nH]cc(Cc4c(F)ccc(OCC(F)(F)F)c4Cl)c3c2)cn1 [P-2146, 3-[2-Chloro-6-fluoro-3-(2,2,2-trifluoro-ethoxy)-benzyl]-5-(1-methyl-1H-pyrazol-4-yl)-1H-pyrrolo[2,3-b]pyridine]
21 |  | ≥ 5.00 |  |  |  |  |  |  | O=C(c1c(F)ccc(OCc2ccccc2)c1F)c1c[nH]c2ncc(Cl)cc12 [P-1825, (3-Benzyloxy-2,6-difluoro-phenyl)-(5-chloro-1H-pyrrolo[2,3-b]pyridin-3-yl)-methanone]
22 | ≥ 5.00 |  |  |  | ≥ 5.00 | ≥ 5.00 | ≥ 5.00 | ≥ 5.00 | COCCOc1cnc2[nH]cc(Cc3cc(F)c(OCc4nc5ccccc5[nH]4)cc3F)c2c1 [P-2176, 2-{2,5-Difluoro-4-[5-(2-methoxy-ethoxy)-1H-pyrrolo[2,3-b]pyridin-3-ylmethyl]-phenoxymethyl}-1H-benzoimidazole]

— patent publication US7872018B2, “Compounds and methods for kinase modulation, and indications therefor” (Plexxikon, Inc., priority 2006, dated 2011)
